Data set [1] can be described thus: Particle size distribution (PSD) analysis by laser diffraction. The class given is physicochemical. The note with it: primary pressure of 4 bar, lens R1, R3 or R5 per sample. The method, then: (§1) In order to provide a small and homogeneous particle size of psychedelic compound in the final suspensions, psilocybin and psilocin were micronised before use. Micronisation was performed by wet bead milling using decafluoropentane as the antisolvent. In a glass vial, 200 mg psychedelic compound and 2 g of 1 mm silica beads were weighed. 3 mL of the antisolvent was added for psilocybin and 2 mL for psilocin. The samples were vortexed for approximately 15 seconds then milled at 530 rpm for 60 minutes.
(§2) The micronised sample was then separated from the silica beads and transferred to a petri dish and left at room temperature to allow for evaporation of the solvent overnight (approximately 18 hours). The dried sample was then collected and characterised by PSD and XRPD.
Particle size analysis was carried out, in single analysis, by laser diffraction using a Sympatec Helos particle size analyser, equipped with a RODOS dry dispersion unit and ASPIROS feeder unit. The lens and primary pressures were varied for each compound tested.

A short description of data set [2]: One compartment SC PK model of psilocin fitted to digitised rat SC data. On the procedure:
Rat SC PK data was digitised for four dose levels (Higgins, G. A. et al., 2021. “Low Doses of Psilocybin and Ketamine Enhance Motivation and Attention in Poor Performing Rats: Evidence for an Antidepressant Property”. Frontiers in Pharmacology, Volume 12, p. 299). The PK was fitted using a one compartment SC model where volume was fixed to the same as human in L/kg. The model was fit to the lower 3 doses levels as the higher dose was determined to be out of the range of investigation.
A one compartment model was used with linear absorption and clearance shown schematically in […]. Mathematically, this model is a series of two linked ordinary differential equations (ODE's) given in equations (7)-(8).
Constant ka is the absorption rate constant (units 1/h), Cl is the clearance (units mL/h), Vc is the volume of distribution of the central compartment (units mL).
It is assumed that the generation of psilocin is instantaneous once psilocybin is absorbed. Due to a lack of rat IV PK data and human and rat plasma protein binding data, total rat volume of distribution (V) on ml/kg basis was fixed to the same as human total volume of distribution. A one compartment SC model gives a satisfactory fit to the absorption phase, seen in FIG. 5, this gives good confidence of the fitted ka value seen in Table 2. Bioavailability was again assumed to be 1.

Data set [3] is described as follows: Two-compartment IV bolus PK model fitted to published human psilocybin IV data. The note with it: psilocin after 1 mg psilocybin IV. The method, then: All analysis was performed using the software R and RStudio, with models being defined using analytical and ODE solutions.
Derivation of system PK parameters for psilocybin/psilocin Systemic PK parameters were derived for published human bolus psilocybin IV data.
Human IV PK data for psilocin after psilocybin was administered was taken from Hasler et al. “Determination of psilocin and 4-hydroxyindole-3-acetic acid in plasma by HPLC-ECD and pharmacokinetic profiles of oral and intravenous psilocybin in man”. Pharm Acta Helv. 1997 June; 72(3):175-84. Model selection was performed by assessing visual fit to data and the respective model AIC's of a one compartment and two compartment IV PK model. These systemic human PK parameters were then used for human […] injection simulations by simulating the PK profiles over a range of doses and absorption rates.
It is assumed that the generation of psilocin is instantaneous and complete once psilocybin is absorbed.
An IV two compartment model best described the IV data from FIG. 2. A two-compartment model gave a good description of the raw data capturing the Cmax and terminal phase well, FIG. 3. The systemic PK parameters can be seen in Table 1 and there are low errors in the parameter estimates.

Data set [4] in a line: Human simulations of psilocin exposure after SC administration. The note with it: from absorption rate of rat SC model. On the procedure: The model that was used is shown schematically in FIG. 6, mathematically the analytical solution is shown in equations (9)-(14).
Using the absorption rate from modelling the rat SC data and the human systemic psilocin PK parameters, human SC simulations were run over 1-12 mg doses and the simulated PK profiles can be seen in FIG. 7. […] These profiles can be seen in FIG. 8, with the summary statistics in Table 4.

A short description of data set [5]: Solubility in excipients (preparative work).
A further data set in a line: XRPD after micronisation. The note with it: wet bead milling in decafluoropentane. The class given is physicochemical. On the procedure: as §1, §2
X-ray powder diffraction (XRPD) analysis was carried out using a Bruker D2 Phaser powder diffractometer equipped with a LynxEye detector. The specimens were located at the centre of a silicon sample holder within a 5 mm pocket. The samples were continuously spun during data collection and scanned using a step size of 0.02° two theta (2θ) between 5° to 60° two theta, the detailed parameters are summarised in Table 10. The data was processed using Diffrac Plus EVA software (Version 3.1).

The conditions of data set [6]: reported; cited from earlier work.
Where [7] appears, read: psilocin after SC psilocybin, rat, fit to 0.05, 0.1, 1 mg/kg.

The structures appear in SMILES notation.

For `CN(C)CCc1c[nH]c2cccc(O)c12` [Micronised psilocin], the D10 in data set [1] is listed as 0.44 μm.
Turning to `CN(C)CCc1c[nH]c2cccc(OP(=O)(O)O)c12` [Micronised psilocybin], in data set [1], the D10 worked out at 0.45 μm and the D50 was 1.20 μm.
Take `CN(C)CCc1c[nH]c2cccc(O)c12` [psilocin, 4-hydroxy-N,N-dimethyltryptamine]: in data set [2] (10 mg/kg SC psilocybin dose in rats versus other doses (not shown)), the “dose normalised AUC” value is listed as “considerably greater than the other doses”. Moreover, in data set [2] (setting [7]), the “Cl (95% CI)” value is 2490 (2260, 2710) mL/h and the “ka, absorption rate constant (95% CI)” value was 2.32 (2.03, 2.61) /h. For the same molecule, in data set [2] (rat, fixed to human total volume of distribution on ml/kg basis), the V is given as 1746 (Fixed) mL. In addition, in data set [3], the “Cl, clearance (95% CI)” value is recorded as 3810 (3340, 4290) ml/min; the “V, volume of distribution of the central compartment (95% CI)” value is on record as 88600 (77300, 99900) ml; the “k12 (95% CI)” value is listed as 0.176 (0.144, 0.208) /min; the “k21 (95% CI)” value is reported as 0.0489 (0.0388, 0.0591) /min. Moreover, the absorption half-life in data set [4] was 17.9 min. In addition, in data set [5] (initial solution trials), the “solubility versus pH” value is “higher solubility at acidic pH”. Further, the “solubility in DMSO and NMP” value in data set [5] (non-micronised) is “good”. Also, the “chemical degradation upon micronisation (XRPD)” value in “XRPD after micronisation” is given as “no significant chemical degradation upon micronisation”.
With `CN(C)CCc1c[nH]c2cccc(OP(=O)(O)O)c12` [psilocybin, [3-(2-dimethylaminoethyl)-1H-indol-4-yl] dihydrogen phosphate], the bioavailability entry in data set [6] is on record as “approximately 50%”. For the same molecule, the “solubility in all the excipients tested” value in data set [5] (non-micronised, 20 excipients) is given as “poor”. The “chemical degradation upon micronisation (XRPD)” value in the data set “XRPD after micronisation” was “no significant chemical degradation upon micronisation”.

(Values after patent publication US20230364007A1, “ADMINISTRATION OF A P[…]” (Reset Pharmaceuticals, Inc., priority 2022, published 2023).)
